# Measured values reported in patent publication US12378224B2 (Dong-A Socio Holdings Co., Ltd., priority 2016, dated 2025).
# Target: human MER (528-end) (Homo sapiens (Human), UniProt Q12866)
# Test: HTRF Kinase Activity Biochemical Assay (KinEASE-TK)
# Conditions: 10 uM ATP
# Method in brief: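 Recombinant human MER (528-end) phosphorylated biotin-TK peptide substrate, 1 h at room temperature. Reaction stopped with detection buffer containing 0.375 nM Eu3+-cryptate anti-TK antibody and 0.062 uM streptavidin-XL665, 1 h further. Activity taken as HTRF ratio 665/620 nm ×10,000, 340 nm excitation.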
# Sequence of human MER (528-end) (Q12866 528-999 limits assumed): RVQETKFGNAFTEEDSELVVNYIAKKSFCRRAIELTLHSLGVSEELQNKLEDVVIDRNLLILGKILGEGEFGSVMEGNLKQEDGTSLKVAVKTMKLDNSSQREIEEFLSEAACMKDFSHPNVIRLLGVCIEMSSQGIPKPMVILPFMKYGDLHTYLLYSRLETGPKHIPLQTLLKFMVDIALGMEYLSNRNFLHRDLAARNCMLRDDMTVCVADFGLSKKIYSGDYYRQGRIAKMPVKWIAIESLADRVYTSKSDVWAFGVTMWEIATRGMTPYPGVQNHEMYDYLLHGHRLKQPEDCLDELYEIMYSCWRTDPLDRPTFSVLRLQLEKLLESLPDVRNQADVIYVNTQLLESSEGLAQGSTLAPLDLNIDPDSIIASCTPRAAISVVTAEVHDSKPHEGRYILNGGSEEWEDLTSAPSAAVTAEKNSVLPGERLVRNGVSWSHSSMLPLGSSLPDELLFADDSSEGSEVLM
row,IC50 [µM],Compound
1,> 1,"COC(=O)/C=C/c1ccc(C(=O)N2CC[C@@H](NC(=O)c3cc(-c4cnn(C)c4)cnc3N)C2)cc1 [Example 828, methyl (R,E)-3-(4-(3-(2-amino-5-(1-methyl-1H-pyrazol-4-yl)nicotinamido)pyrrolidine-1-carbonyl)phenyl)acrylate]"
2,> 1,"Cn1cc(-c2cnc(N)c(C(=O)N[C@@H]3C[C@H](C(=O)O)N(C(=O)c4ccc(-c5ccc(F)cc5Cl)cc4)C3)c2)cn1 [Example 839, (2R,4R)-4-(2-amino-5-(1-methyl-1H-pyrazol-4-yl)nicotinamido)-1-(2′-chloro-4′-fluoro-[1,1′-biphenyl]-4-carbonyl)pyrrolidine-2-carboxylic acid]"
3,> 1,"(R)-2-amino-N-(1-(3,5-dihydroxy-2-naphthoyl)pyrrolidin-3-yl)-5-(1-methyl-1H-pyrazol-4-yl)nicotinamide [Example 668]"

# Target: human c-MER catalytic domain (Homo sapiens (Human), UniProt Q12866)
# Test: TR-FRET Kinase Activity Biochemical Assay (LanthaScreen)
# Conditions: 10 uM ATP, 1 hour, kinase not given
# Description: For the SAR (structure-activity relationship) and compound screening, LanthaScreen™ TR-FRET (Time-Resolved fluorescence energy transfer) assay was employed using the phospho-tyrosine specific Terbium (Tb)-labelded antibody with a fluorescein labeled poly-GT (glutamate-tyrosine) as a substrate. Upon excitation at 340 nm by UV, the energy from Tb donor of the antibody is transferred to the fluorescein of the phosphorylated poly GT substrate, and fluorescein emits light at 520 nm. The ratio between the intensity of […] was used to quantify the level of kinase activity. The recombinant proteins of human c-MER and AXL catalytic domains, Fluorescein-labeled poly-GT substrate, Tb-labeled anti-phosphorylated tyrosine antibodies, the kinase assay buffer, and 0.5M EDTA solution were purchased (Life technologies, USA). The TR-FRET assays were carried out in the white low volume 384-well plate (Corning, USA). […] 10 mM EDTA was added to terminate the enzyme reaction, and the level of phosphorylation of poly-GT substrate was determined following 30 min incubation with 2 nM Tb-labeled antibody. The fluorescence intensity was measured with Envision™ plate reader (PerkinElmer, USA).
# Sequence of human c-MER catalytic domain (Q12866 587-858): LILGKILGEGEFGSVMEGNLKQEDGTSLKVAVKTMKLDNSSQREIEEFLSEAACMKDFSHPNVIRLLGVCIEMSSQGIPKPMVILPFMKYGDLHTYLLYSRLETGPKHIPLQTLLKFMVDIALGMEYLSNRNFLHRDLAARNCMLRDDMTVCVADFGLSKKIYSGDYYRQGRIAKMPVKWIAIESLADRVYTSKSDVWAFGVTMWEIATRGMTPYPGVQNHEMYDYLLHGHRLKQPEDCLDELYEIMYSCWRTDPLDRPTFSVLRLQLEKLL
row,Compound,IC50 [µM]
1,"Cn1cc(-c2cnc(N)c(C(=O)N[C@@H]3CCN(C(=O)Nc4ccccc4)C3)c2)cn1 [Example 1, (R)-2-amino-5-(1-methyl-1H-pyrazol-4-yl)-N-(1-(phenylcarbamoyl)pyrrolidin-3-yl)nicotinamide]",0.1 to 1
2,"Nc1ncc(-c2ccc(C(=O)N3CCOCC3)cc2)cc1C(=O)N[C@@H]1CCN(C(=O)Nc2cc(Cl)cc(Cl)c2)C1 [Example 9, (R)-2-amino-N-(1-((3,5-dichlorophenyl)carbamoyl)pyrrolidin-3-yl)-5-(4-(morpholine-4-carbonyl)phenyl)nicotinamide]",0.01 to 0.1
3,"Nc1ncc(-c2ccc(CO)cc2)cc1C(=O)N[C@@H]1CCN(C(=O)Nc2cc(Cl)cc(Cl)c2)C1 [Example 10, (R)-2-amino-N-(1-((3,5-dichlorophenyl)carbamoyl)pyrrolidin-3-yl)-5-(4-(hydroxymethyl)phenyl)nicotinamide]",0.01 to 0.1
4,"Cn1cc(-c2cnc(N)c(C(=O)N[C@@H]3CCN(C(=O)Nc4cccnc4)C3)c2)cn1 [Example 13, (R)-2-amino-5-(1-methyl-1H-pyrazol-4-yl)-N-(1-(pyridin-3-ylcarbamoyl)pyrrolidin-3-yl)nicotinamide]",> 1
5,"Cn1cc(-c2cnc(N)c(C(=O)N[C@@H]3CCN(C(=O)Nc4cccc(Cl)c4Cl)C3)c2)cn1 [Example 15, (R)-2-amino-N-(1-((2,3-dichlorophenyl)carbamoyl)pyrrolidin-3-yl)-5-(1-methyl-1H-pyrazol-4-yl)nicotinamide]",0.01 to 0.1
6,"CCc1ccccc1NC(=O)N1CC[C@@H](NC(=O)c2cc(-c3cnn(C)c3)cnc2N)C1 [Example 20, (R)-2-amino-N-(1-((2-ethylphenyl)carbamoyl)pyrrolidin-3-yl)-5-(1-methyl-1H-pyrazol-4-yl)nicotinamide]",> 1
7,"Cn1cc(-c2cnc(N)c(C(=O)N[C@@H]3CCN(C(=O)Nc4cccc(Br)c4)C3)c2)cn1 [Example 24, (R)-2-amino-N-(1-((3-bromophenyl)carbamoyl)pyrrolidin-3-yl)-5-(1-methyl-1H-pyrazol-4-yl)nicotinamide]",0.1 to 1
8,"COc1cc(NC(=O)N2CC[C@@H](NC(=O)c3cc(-c4cnn(C)c4)cnc3N)C2)cc(OC)c1OC [Example 35, (R)-2-amino-5-(1-methyl-1H-pyrazol-4-yl)-N-(1-((3,4,5-trimethoxyphenyl)carbamoyl)pyrrolidin-3-yl)nicotinamide]",0.1 to 1
9,"CN1CCN(Cc2ccc(-c3cnc(N)c(C(=O)N[C@@H]4CCN(C(=O)Nc5cccc(-c6ccccc6)c5)C4)c3)cc2)CC1 [Example 37, (R)—N-(1-([1,1′-biphenyl]-3-ylcarbamoyl)pyrrolidin-3-yl)-2-amino-5-(4-((4-methylpiperazin-1-yl)methyl)phenyl)nicotinamide]",0.01 to 0.1
10,"Nc1ncc(-c2ccc(CN3CCC(O)CC3)cc2)cc1C(=O)N[C@@H]1CCN(C(=O)Nc2cccc(-c3ccccc3)c2)C1 [Example 39, (R)—N-(1-([1,1′-biphenyl]-3-ylcarbamoyl)pyrrolidin-3-yl)-2-amino-5-(4-((4-hydroxypiperidin-1-yl)methyl)phenyl)nicotinamide]",0.01 to 0.1
11,"Cn1cc(-c2cnc(N)c(C(=O)N[C@@H]3CCN(C(=S)Nc4ccc(N5CCOCC5)cc4)C3)c2)cn1 [Example 49, (R)-2-amino-5-(1-methyl-1H-pyrazol-4-yl)-N-(1-((4-morpholinophenyl)carbamothioyl)pyrrolidin-3-yl)nicotinamide]",0.1 to 1
12,"Cn1cc(-c2cnc(N)c(C(=O)N[C@@H]3CCN(C(=O)Oc4ccccc4N)C3)c2)cn1 [Example 70, 2-aminophenyl (R)-3-(2-amino-5-(1-methyl-1H-pyrazol-4-yl)nicotinamido)pyrrolidine-1-carboxylate]",> 1
13,"CC1CC(C)CC(OC(=O)N2CC[C@@H](NC(=O)c3cc(-c4cnn(C)c4)cnc3N)C2)C1 (stereo partly drawn) [Example 79, 3,5-dimethylcyclohexyl (3R)-3-(2-amino-5-(1-methyl-1H-pyrazol-4-yl)nicotinamido)pyrrolidine-1-carboxylate]",> 1
14,"CN1CCN(Cc2ccc(-c3cnc(N)c(C(=O)N[C@@H]4CCN(C(=O)Oc5cccc(-c6ccccc6)c5)C4)c3)cc2)CC1 [Example 82, [1,1′-biphenyl]-3-yl (R)-3-(2-amino-5-(4-((4-methylpiperazin-1-yl)methyl)phenyl)nicotinamido)pyrrolidine-1-carboxylate]",0.01 to 0.1
15,"Cn1cc(-c2cnc(N)c(C(=O)N[C@@H]3CCN(C(=O)Oc4ccc5ccc(O)cc5c4)C3)c2)cn1 [Example 95, 7-hydroxynaphthalen-2-yl (R)-3-(2-amino-5-(1-methyl-1H-pyrazol-4-yl)nicotinamido)pyrrolidine-1-carboxylate]",0.1 to 1
16,"C[C@H]1CCCC[C@H]1OC(=O)N1CC[C@@H](NC(=O)c2cc(-c3cnn(C)c3)cnc2N)C1 [Example 108, (1R,2S)-2-methylcyclohexyl (R)-3-(2-amino-5-(1-methyl-1H-pyrazol-4-yl)nicotinamido)pyrrolidine-1-carboxylate]",> 1
17,"CN1CCN(Cc2ccc(Oc3ccc(OC(=O)N4CC[C@@H](NC(=O)c5cc(-c6cnn(C)c6)cnc5N)C4)cc3)cc2)CC1 [Example 113, 4-(4-((4-methylpiperazin-1-yl)methyl)phenoxy)phenyl (R)-3-(2-amino-5-(1-methyl-1H-pyrazol-4-yl)nicotinamido)pyrrolidine-1-carboxylate]",0.1 to 1
18,"Cn1cc(-c2cnc(N)c(C(=O)N[C@@H]3CCN(C(=O)Oc4cccc(-c5ccccc5)c4)C3)c2)cn1 [Example 117, [1,1′-biphenyl]-3-yl (R)-3-(2-amino-5-(1-methyl-1H-pyrazol-4-yl)nicotinamido)pyrrolidine-1-carboxylate]",0.01 to 0.1
19,"CN1CCN(Cc2ccc(-c3cnc(N)c(C(=O)N[C@@H]4CCN(C(=O)Oc5ccccc5)C4)c3)cc2)CC1 [Example 118, phenyl (R)-3-(2-amino-5-(4-((4-methylpiperazin-1-yl)methyl)phenyl)nicotinamido)pyrrolidine-1-carboxylate]",0.1 to 1
20,"Cn1cc(-c2cnc(N)c(C(=O)N[C@@H]3CCN(C(=O)O[C@H]4CCC[C@@H]4OCc4ccccc4)C3)c2)cn1 [Example 120, (1S,2S)-2-(benzyloxy)cyclopentyl (R)-3-(2-amino-5-(1-methyl-1H-pyrazol-4-yl)nicotinamido)pyrrolidine-1-carboxylate]",> 1
21,"Cn1cc(-c2cnc(N)c(C(=O)N[C@@H]3CCN(C(=O)OC4CCC(c5ccccc5)C4)C3)c2)cn1 (stereo partly drawn) [Example 121, 3-phenylcyclopentyl (3R)-3-(2-amino-5-(1-methyl-1H-pyrazol-4-yl)nicotinamido)pyrrolidine-1-carboxylate]",0.1 to 1
22,"Cn1cc(-c2cnc(N)c(C(=O)N[C@@H]3CCN(C(=O)OC4CCCN(c5ccc(C=O)cc5)C4)C3)c2)cn1 (stereo partly drawn) [Example 123, 1-(4-formylphenyl)piperidin-3-yl (3R)-3-(2-amino-5-(1-methyl-1H-pyrazol-4-yl)nicotinamido)pyrrolidine-1-carboxylate]",> 1
23,"Cn1cc(-c2cnc(N)c(C(=O)N[C@@H]3CCN(C(=O)OC4CCN(c5ccccc5)C4)C3)c2)cn1 (stereo partly drawn) [Example 126, 1-phenylpyrrolidin-3-yl (3R)-3-(2-amino-5-(1-methyl-1H-pyrazol-4-yl)nicotinamido)pyrrolidine-1-carboxylate]",> 1
24,"Cn1cc(-c2cnc(N)c(C(=O)N[C@@H]3CCN(C(=O)O[C@@H]4CCN(c5ccccc5)C4)C3)c2)cn1 [Example 127, (R)-1-phenylpyrrolidin-3-yl (R)-3-(2-amino-5-(1-methyl-1H-pyrazol-4-yl)nicotinamido)pyrrolidine-1-carboxylate]",> 1
25,"Cn1cc(-c2cnc(N)c(C(=O)N[C@@H]3CCN(C(=O)O[C@H]4CCN(c5ccccc5)C4)C3)c2)cn1 [Example 128, (S)-1-phenylpyrrolidin-3-yl (R)-3-(2-amino-5-(1-methyl-1H-pyrazol-4-yl)nicotinamido)pyrrolidine-1-carboxylate]",0.1 to 1
26,"Cc1ccc(N2CC[C@@H](NC(=O)c3cc(-c4cnn(C)c4)cnc3N)C2)cc1 [Example 134, (R)-2-amino-5-(1-methyl-1H-pyrazol-4-yl)-N-(1-(p-tolyl)pyrrolidin-3-yl)nicotinamide]",> 1
